Experimental data taken from ChEMBL document CHEMBL4765314, “Rational design and biological evaluation of gemfibrozil modified Xenopus GLP-1 derivatives as long-acting hypoglycemic agents” (Eur J Med Chem, 2020).
Activity calls are given as the source filed them. The rule behind the calls is not given here. Starred links: 1 amine or outer side, 2 acyl side, 3 side chain; linkers in the order of their positions; H or OH if unused. Residues, ends and D or L forms follow the SMILES beside them. Groups on a side chain read outwards from the residue. *: point of attachment. X1 = Cc1ccc(C)c(OCCCC(C)(C)C(=O)OCC(=O)NCCCCCCCCCC(NC(=O)COC(=O)C(C)(C)CCCOc2cc(C)ccc2C)C(=O)*)c1; γGlu = O=C(O)[C@H](CCC(=O)[*:2])N[*:1]

Assays:
[1] = target: Glucagon-like peptide 1 receptor (Homo sapiens, UniProt P43220); assay: Agonist activity at human GLP-1R expressed in HEK293 cells assessed as stimulation of cAMP accumulation incubated for 60 mins by HTRF assay; type: functional, cell-based
Glucagon-like peptide 1 receptor, sequence (P43220 whole entry): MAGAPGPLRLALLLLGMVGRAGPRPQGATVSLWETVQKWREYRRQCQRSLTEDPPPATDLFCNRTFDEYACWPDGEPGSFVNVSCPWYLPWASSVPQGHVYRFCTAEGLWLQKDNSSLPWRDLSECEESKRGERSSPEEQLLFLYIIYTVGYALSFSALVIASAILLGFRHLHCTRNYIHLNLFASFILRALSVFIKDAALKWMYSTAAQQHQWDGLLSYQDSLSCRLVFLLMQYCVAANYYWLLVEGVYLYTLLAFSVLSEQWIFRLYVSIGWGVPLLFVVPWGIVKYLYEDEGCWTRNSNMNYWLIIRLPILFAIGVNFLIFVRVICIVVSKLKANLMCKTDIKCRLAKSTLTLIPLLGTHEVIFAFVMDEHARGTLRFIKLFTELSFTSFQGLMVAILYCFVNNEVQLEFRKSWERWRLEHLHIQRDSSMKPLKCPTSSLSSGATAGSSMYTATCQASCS

[2] = tested on: Mus musculus; assay: Hypoglycemic activity in 12 hrs fasted ICR mouse assessed as reduction in blood glucose level at 25 nmol/kg, ip dosed 30 mins before glucose challenge measured up to 120 mins by OGTT method; type: functional, organism-based; conditions: time 150.0 min
[3] = Stability in Sprague-Dawley rat plasma assessed as half life at 1000 ng/ml measured up to 48 hrs under shaking condition by LC-MS/MS analysis; type: ADME, cell-free
[4] = target: Albumin (Homo sapiens, UniProt P02768); assay: Binding affinity to human serum albumin assessed as retention factor by HPAC method; type: ADME
Albumin, sequence (P02768 whole entry): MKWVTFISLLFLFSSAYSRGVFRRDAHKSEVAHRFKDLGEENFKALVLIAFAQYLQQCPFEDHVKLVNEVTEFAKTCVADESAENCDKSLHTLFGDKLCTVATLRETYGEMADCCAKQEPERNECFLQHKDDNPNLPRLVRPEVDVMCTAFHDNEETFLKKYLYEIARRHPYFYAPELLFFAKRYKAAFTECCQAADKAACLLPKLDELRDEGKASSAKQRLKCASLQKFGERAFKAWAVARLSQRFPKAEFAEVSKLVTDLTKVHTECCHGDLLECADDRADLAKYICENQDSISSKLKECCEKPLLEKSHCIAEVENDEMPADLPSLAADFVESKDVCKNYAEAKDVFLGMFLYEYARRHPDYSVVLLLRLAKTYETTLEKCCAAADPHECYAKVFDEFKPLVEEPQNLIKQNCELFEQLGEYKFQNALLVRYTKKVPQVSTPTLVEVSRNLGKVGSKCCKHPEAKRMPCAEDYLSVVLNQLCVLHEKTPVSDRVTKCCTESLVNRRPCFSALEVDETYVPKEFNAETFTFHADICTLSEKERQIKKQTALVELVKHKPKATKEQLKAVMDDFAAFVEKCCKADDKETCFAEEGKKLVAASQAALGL

[5] = tested on: Mus musculus; assay: Hypoglycemic activity in non-fasted db/db mouse assessed as duration of time during which decrease in blood glucose concentration is observed at 25 nmol/kg, sc by OGTT method; type: functional
[6] = Half life in Sprague-Dawley rat at 50 nmol/kg, sc measured up to 24 hrs by LC-MS/MS analysis; type: ADME, organism-based; conditions: in vivo
[7] = Tmax in Sprague-Dawley rat at 50 nmol/kg, sc measured up to 24 hrs by LC-MS/MS analysis; type: ADME, organism-based; conditions: in vivo
[8] = tested on: Mus musculus; assay: Hypoglycemic activity in db/db mouse assessed as decrease in glucose excursion at 25 nmol/kg, ip dosed 30 mins before glucose challenge and measured up to 180 mins by OGTT method; type: functional, organism-based; conditions: time 210.0 min
[9] = tested on: Mus musculus; assay: Hypoglycemic activity in db/db mouse assessed as improvement in glucose tolerance at 25 nmol/kg, ip dosed 30 mins before glucose challenge and measured up to 180 mins by OGTT method; type: functional, organism-based; conditions: time 210.0 min
[10] = tested on: Mus musculus; assay: Insulinotropic activity in db/db mouse assessed as improvement in plasma insulin level at 25 nmol/kg, ip dosed 30 mins before glucose challenge and measured up to 60 mins by ELISA; type: functional, organism-based; conditions: time 90.0 min
[11] = tested on: Mus musculus; assay: Hypoglycemic activity in non-fasted sc dosed db/db mouse assessed as reduction in blood glucose treated 30 mins before glucose challenge and measured up to 48 hrs by OGTT method; type: functional, organism-based; conditions: dose 25-100 nmol/kg, time min <=2910
[12] = tested on: Mus musculus; assay: Anorectic activity in non-fasted sc dosed db/db mouse assessed as reduction in food intake treated 30 mins before glucose challenge and measured up to 48 hrs; type: functional, organism-based; conditions: time min <=2910
[13] = tested on: Mus musculus; assay: Hypoglycemic activity in 16 hrs fasted db/db mouse assessed as reduction in blood glucose level at 25 nmol/kg, ip treated 30 mins before glucose challenge and measured at 0 to 12 hrs by multiple OGTT; type: functional, organism-based; conditions: time 750.0 min
[14] = tested on: Mus musculus; assay: Gastric emptying in 6 hrs fasted ICR mouse assessed as reduction in blood paracetamol concentration at 25 nmol/kg, ip dosed 30 mins before paracetamol dosing measured up to 60 mins by LC-MS/MS analysis; type: functional, organism-based; conditions: time 90.0 min
[15] = Inhibition of solid-phase gastric emptying in 12 hrs fasted ICR mouse assessed reduction in gastric emptying rate at 25 nmol/kg, ip allowed for food intake 1 hrs and measured after 4 hrs […]; type: functional; set-up: scale not given: the % may be the effect or the level left
[16] = Hepatotoxicity in ICR mouse assessed as effect on aspartate aminotransferase level at 1000 nmol/kg, sc administered once daily for 2 weeks; type: toxicity, organism-based; conditions: in vivo, 336 h
[17] = Hepatotoxicity in ICR mouse assessed as effect on alanine aminotransferase level at 1000 nmol/kg, sc administered once daily for 2 weeks; type: toxicity, organism-based; conditions: in vivo, 336 h
[18] = Renal toxicity in ICR mouse assessed as effect on blood urea nitrogen level at 1000 nmol/kg, sc administered once daily for 2 weeks; type: organism-based; conditions: in vivo, 336 h
[19] = Renal toxicity in ICR mouse assessed as effect on serum creatinine level at 1000 nmol/kg, sc administered once daily for 2 weeks; type: organism-based; conditions: in vivo, 336 h
[20] = tested on: Mus musculus; assay: Reduction in body weight in C57BL/6 mouse model of diet induced obesity at 25 nmol/kg, sc administered once daily for 21 days relative to control; type: functional; set-up: scale not given: the % may be the effect or the level left; conditions: time 21 day
[21] = tested on: Mus musculus; assay: Anorectic activity in C57BL/6 mouse model of diet induced obesity assessed as reduction in food intake at 25 nmol/kg, sc administered once daily for 21 days relative to control; type: functional, organism-based; conditions: time 21.0 day
[22] = tested on: Mus musculus; assay: Reduction in body fat content in C57BL/6 mouse model of high-fat diet induced obesity at 25 nmol/kg, sc administered once daily for 21 days relative to control; type: functional; set-up: scale not given: the % may be the effect or the level left; conditions: time 21 day
[23] = tested on: Mus musculus; assay: Reduction in serum triglyceride in C57BL/6 mouse model of high-fat diet induced obesity at 25 nmol/kg, sc administered once daily for 21 days; type: functional, organism-based; conditions: time 21.0 day
[24] = tested on: Mus musculus; assay: Reduction in serum total cholesterol in C57BL/6 mouse model of high-fat diet induced obesity at 25 nmol/kg, sc administered once daily for 21 days; type: functional, organism-based; conditions: time 21.0 day
[25] = tested on: Mus musculus; assay: Increase in serum HDL level in C57BL/6 mouse model of high-fat diet induced obesity at 25 nmol/kg, sc administered once daily for 21 days; type: functional, organism-based; conditions: time 21.0 day
[26] = tested on: Mus musculus; assay: Reduction in serum LDL level in C57BL/6 mouse model of high-fat diet induced obesity at 25 nmol/kg, sc administered once daily for 21 days; type: functional, organism-based; conditions: time 21.0 day
[27] = tested on: Mus musculus; assay: Effect in normal chow diet fed C57BL/6 mouse assessed as reduction in body weight increase at 25 nmol/kg, sc administered once daily for 21 days (reference value: 10.8%); type: functional; set-up: scale not given: the % may be the effect or the level left; conditions: time 21 day
[28] = tested on: Mus musculus; assay: Anorectic effect in normal chow diet fed C57BL/6 mouse assessed as reduction in food intake at 25 nmol/kg, sc administered once daily for 21 days; type: functional, organism-based; conditions: time 21.0 day
[29] = tested on: Mus musculus; assay: Inhibition of fat mass gain in normal chow diet fed C57BL/6 mouse at 25 nmol/kg, sc administered once daily for 21 days; type: functional, organism-based; conditions: time 21.0 day
[30] = tested on: Mus musculus; assay: Hypoglycemic activity in normal chow diet fed C57BL/6 mouse assessed as fasting blood glucose at 25 nmol/kg, sc administered once daily for 21 days; type: functional, organism-based; conditions: time 21.0 day
[31] = tested on: Mus musculus; assay: Improvement in glucose tolerance in standard chow diet fed C57BL/6 mouse at 25 nmol/kg, sc administered once daily for 21 days; type: functional, organism-based; conditions: time 21.0 day
[32] = tested on: Mus musculus; assay: Reduction in body weight gain in db/db mouse at 25 nmol/kg, sc administered once daily for 21 days; type: functional, organism-based; conditions: time 21.0 day
[33] = tested on: Mus musculus; assay: Improvement in fasted blood glucose level in db/db mouse at 25 nmol/kg, sc administered once daily for 21 days; type: functional, organism-based; conditions: time 21.0 day
[34] = tested on: Mus musculus; assay: Improvement in HbA1c level in db/db mouse at 25 nmol/kg, sc administered once daily for 21 days; type: functional, organism-based; conditions: time 21.0 day
[35] = tested on: Mus musculus; assay: Improvement in glucose tolerance in db/db mouse at 25 nmol/kg, sc administered once daily for 42 days by OGTT; type: functional, organism-based; conditions: time 42.0 day
[36] = tested on: Mus musculus; assay: Reduction in HbA1c level in db/db mouse at 25 nmol/kg, sc administered once daily for 42 days by OGTT; type: functional, organism-based; conditions: time 42.0 day
[37] = tested on: Mus musculus; assay: Hypoglycemic activity in non-fasted db/db […] mouse assessed as reduction in blood glucose level at 25 nmol/kg, ip dosed 30 mins before glucose challenge measured up to 120 mins by OGTT method; type: functional, organism-based
[38] = tested on: Mus musculus; assay: Hypoglycemic activity in non-fasted db/db […] mouse assessed as increase in duration of time under normoglycemic state at 25 nmol/kg, sc by OGTT method relative to liraglutide; type: functional, organism-based
[39] = tested on: Mus musculus; assay: Improvement in glucose tolerance in db/db mouse assessed as time for superior hypoglycemic effect by measuring glucose AUC at 25 nmol/kg, sc administered once daily for 42 days by OGTT; type: functional; conditions: time 42 day

CC[C@H](C)[C@H](NC(=O)[C@H](CC(C)C)NC(=O)[C@H](Cc1c[nH]c2ccccc12)NC(=O)[C@H](CCC(=O)O)NC(=O)[C@@H](NC(=O)[C@H](Cc1ccccc1)NC(=O)[C@H](CCC(=O)O)NC(=O)[C@H](CCCCNC(=O)CC[C@H](NC(=O)C(CCCCCCCCCNC(=O)COC(=O)C(C)(C)CCCOc1cc(C)ccc1C)NC(=O)COC(=O)C(C)(C)CCCOc1cc(C)ccc1C)C(=O)O)NC(=O)[C@H](C)NC(=O)[C@H](C)NC(=O)[C@H](CCC(=O)O)NC(=O)[C@H](CCC(=O)O)NC(=O)[C@H](CCC(=O)O)NC(=O)[C@H](CC(C)C)NC(=O)[C@H](Cc1ccc(O)cc1)NC(=O)[C@H](CCC(=O)O)NC(=O)[C@@H](NC(=O)[C@@H](NC(=O)[C@H](CC(=O)O)NC(=O)[C@H](CC(N)=O)NC(=O)[C@@H](NC(=O)[C@H](Cc1ccc(O)cc1)NC(=O)[C@@H](NC(=O)CNC(=O)[C@H](CCC(=O)O)NC(=O)CNC(=O)[C@@H](N)Cc1cnc[nH]1)[C@@H](C)O)[C@@H](C)O)C(C)C)[C@@H](C)O)[C@@H](C)CC)C(=O)N[C@@H](CCCCN)C(=O)NCC(=O)N[C@@H](CCCCN)C(=O)N1CCC[C@H]1C(=O)N[C@@H](CO)C(=O)N[C@@H](CO)C(=O)NCC(=O)N[C@@H](C)C(=O)N1CCC[C@H]1C(=O)N1CCC[C@H]1C(=O)N1CCC[C@H]1C(=O)N[C@@H](CO)C(=O)O (some centres undefined) (H-HGEGTYTNDVTEYLEEEAAK([γGlu-X1])EFIEWLIKGKPSSGAPPPS-OH)
EC50 [1]: 0.17 nM
Activity [2]: Active
half-life at 1000 ng/ml [3]: 37.6 h
K [4]: 13.3
Time [5]: 24 h
half-life [6]: 7 h
Tmax [7]: 4 h
Activity [8]: Active
Activity [9]: Active
Activity [10]: Active
Activity [11]: Dose-dependent effect
Activity [12]: Dose-dependent effect
Activity [13]: Active
Activity [14]: Active
Activity [15]: 48.3%
Activity [16]: Non-Toxic
Activity [17]: Non-Toxic
Activity [18]: Non-Toxic
Activity [19]: Non-Toxic
Activity [20]: 15.4%
Activity [21]: Active
Activity [22]: 29.8%
Activity [23]: Active
Activity [24]: Active
Activity [25]: Active
Activity [26]: Active
Activity [27]: 4.5%
Activity [28]: Active
Activity [29]: Active
Activity [30]: inactive
Activity [31]: inactive
Activity [32]: Active
Activity [33]: Active
Activity [34]: Active
Activity [35]: Active
Activity [36]: Active
Activity [37]: Active
Activity [38]: Active
Time [39]: 84 days
